{
  "source": "patent US20170027973A1",
  "about": "“MODULARION OF INVARIANT NATURAL KILLER T CELLS IN THE TREATMENT OF SEPSIS” (LONDON HEALTH SCIENCES CENTRE RESEARCH INC., priority 2014, published 2017)",
  "key": {"[1]": {"system": "B6 mice with intra-abdominal sepsis (IAS)", "assay": "Murine intra-abdominal sepsis (IAS) model: survival and murine sepsis score (MSS)", "type": "in vivo, mouse", "settings": "septic B6 mice", "procedure": "Stool from the cecum of euthanized naïve B6 mice was expressed through an enterotomy, homogenized, and suspended in 0.9% normal saline (NS) to produce a fecal slurry at a final concentration of 90 mg/mL, for use in experiments on the same day. Mice were injected intraperitoneally with 500 μL fecal slurry or 0.9% normal saline (sham group). The mice were monitored and scored by two independent investigators—one of whom was blinded to the treatment—every 2-3 hours for the first 12 hours, and then every 1-2 hours thereafter. A murine sepsis score (MSS) was assigned to each mouse based on activity, eye movement, response to exogenous stimuli, breathing rate and pattern, and degree of piloerection (Shrum et al. BMC Research Notes 2014, 7:233). The MSS is a reliable and robust scoring system that has excellent inter-rater reliability (intra-class coefficient=0.96), high internal consistency (Cronbach α=0.92), and correlates with levels of certain pro-inflammatory cytokines such as IFN-γ and IL-1β during the experimental timeline (Shrum et al. BMC Research Notes 2014, 7:233). Mice were euthanized at 24 hours, or earlier if they were deemed to be in significant distress based on our scoring model. Euthanasia was carried out as described above. At the time of sacrifice, intra-cardiac blood was drawn into 1.5 mL micro-centrifuge tubes (BD Biosciences) and centrifuged for serum at 1000×g for 30 minutes at 4° C.\n(§1) Lyophilized OCH was generously provided by the National Institutes of Health (NIH) Tetramer Core Facility (Emory University, Atlanta, Ga.). Each vial containing 0.2 mg of OCH was solubilized in a vehicle solution containing 1 mL of sterile distilled water, 0.5% Tween 20, 56 mg of sucrose and 7.5 mg of histidine, and stored as aliquots at 4° C. until use. KRN7000 (α-GalCer, C26:0/C18:0) was purchased from Funakoshi Co. Ltd. (Tokyo, Japan), solubilized at 1 mg/ml in dimethylsulphoxide (DMSO), and stored as aliquots at −20° C. until use (29); the control vehicle was 2% DMSO in phosphate-buffered saline (PBS). C20:2 was synthesized and used as previously published (30, 31). For in vivo experiments, mice were injected intraperitoneally (i.p.) with a single dose of glycolipid (4 μg/dose) (30) within twenty minutes after induction of IAS."}, "[2]": {"settings": "C20:2 compared to OCH; cited from earlier work"}, "invariant TCR": {"system": "invariant TCR", "settings": "C20:2 compared to OCH; cited from earlier work"}, "splenocyte apoptosis": {"system": "splenocyte apoptosis", "assay": "Histology (H&E) and TUNEL staining of spleen, liver and omentum of septic B6 mice", "type": "in vivo, mouse", "settings": "24 hours", "description": "FIG. 6: Histopathology of septic B6 mice treated with glycolipid agonists of iNKT cells. […] Lymphocyte migration to the omentum is also ameliorated in OCH-treated mice compared to vehicle- and KRN7000-treated mice. There were no histopathological differences in the liver. Images are representative of 4 animals per treatment group (size bar, 50 μm). (b) Histopathological scoring of the degree of apoptosis observed within the spleens of sham and septic B6 mice treated with vehicle, KRN7000, or OCH (n=4 animals per treatment group). Apoptosis was defined histologically by the presence of cell clusters with nuclear shrinkage (karyorrhexis), dark eosinophilic cytoplasm, intact plasma membrane, and relative paucity of surrounding inflammatory cells within the splenic follicles on H&E staining. Scores assigned to each animal by a blinded independent pathologist were as follows: 0 for complete absence of apoptosis; 1 for mild presence of apoptosis (0-15% per follicle); 2 for moderate apoptosis (16-30% per follicle); and 3 for severe apoptosis (31-45% per follicle). ***p<0.0001 by two-tailed Mann Whitney U test.\nLiver, spleen, and omentum from sham B6 mice, and vehicle-, OCH-, and KRN7000-treated septic B6 mice were fixed in 10% neutral buffered formalin, embedded in paraffin, sectioned, and stained with H&E or subjected to TUNEL staining using a commercially available kit (Calbiochem). At least four stained sections per spleen from four animals per treatment group were examined and scored for apoptosis by a board-certified veterinary pathologist (Welch) who was blinded to the study design. Apoptosis was defined histologically by the presence of cell clusters with nuclear shrinkage (karyorrhexis), dark eosinophilic cytoplasm, intact plasma membrane, and relative paucity of surrounding inflammatory cells within the splenic follicles on H&E staining (34). Scores assigned to each animal were as follows: 0 for complete absence of apoptosis; 1 for mild presence of apoptosis (0-15% per follicle); 2 for moderate apoptosis (16-30% per follicle); and 3 for severe apoptosis (31-45% per follicle). Photomicrographs were taken using a Nikon DS-Fi1 digital camera using NIS-elements software."}, "serum IL-4 and IFN-γ": {"system": "serum IL-4 and IFN-γ", "assay": "Serum IL-4 and IFN-γ by ELISA after i.p. glycolipid injection into naïve B6 mice", "type": "in vivo, mouse", "settings": "compared to OCH", "procedure": "FIG. 10: Effect of glycolipid agonists on cytokine expression in naïve B6 mice, and on iNKT cells in septic B6 mice. (a) Naïve B6 mice were injected i.p. with 4 μg OCH or KRN7000 or C20:2, and bled at 2, 12, and 24 hours post-injection. Serum samples were assayed for IL-4 and IFN-γ by enzyme-linked immunosorbent assay (ELISA). […] Vehicle-treated mice had cytokine levels below limits of detection. (b) B6 mice were given an intraperitoneal injection of fecal slurry (500 μL of a 90 mg/mL solution) to induce IAS and concomitantly treated with 4 μg of vehicle, OCH, or KRN7000. After 24 hours, mice were sacrificed, and cell suspensions from the liver and spleen were stained for the flow cytometric detection of CD1d tetramer+ TCRβ+iNKT cells.\nas §1\nCytokine concentrations were determined by commercially available specific ELISA assays for IL-4 and IFN-γ (Ready-Set-Go kits, eBioscience). ODs were measured on a Benchmark Microplate Reader (Bio-Rad) at a wavelength of 450 nm for both cytokines."}},
  "data": [
    {"smiles": "CCCCC/C=C\\C/C=C\\CCCCCCCCCC(=O)N[C@@H](CO[C@H]1O[C@H](CO)[C@H](O)[C@H](O)[C@H]1O)[C@H](O)[C@H](O)CCCCCCCCCCCCCC", "note": "[C20:2]", "values": [
      {"measurement": "respiratory status", "setting": "[1]; observed up to 24 hours", "result": "improved respiratory status"},
      {"measurement": "course of MSS over time", "setting": "[1]; up to 24 hours", "result": "continued to rise"},
      {"measurement": "MSS between 20 and 24 hours", "setting": "[1]; compared to vehicle-treated mice", "result": "significant reduction"},
      {"measurement": "half-life", "setting": "[2]", "result": "relatively short"},
      {"measurement": "capacity to bind and activate iNKT cells", "setting": "invariant TCR", "result": "significantly stronger"},
      {"measurement": "apoptosis in histology compared to KRN7000-treated mice", "setting": "splenocyte apoptosis", "result": "decrease"},
      {"measurement": "degree of apoptosis compared to OCH-treated mice", "setting": "splenocyte apoptosis", "result": "higher"},
      {"measurement": "Th2 response at 24 hours", "setting": "serum IL-4 and IFN-γ", "result": "more pronounced"}
    ]}
  ]
}
